The source of these data is patent publication EP1642577A1, “Derivatives of aryl (or heteroaryl) azolylcarbinols for the treatment of central neuropathic pain” (Laboratorios Dr. Esteve S.A., priority 2004, dated 2006).

The assay concerns Rats operated on lnfraorbital nerve. Put plainly: Rats operated on infraorbital nerve (ligature): response/nociceptive threshold measured as aversive reactions. In kind it is in vivo. The text has this:
Figures 1 and 2: Refering to example 7 they show the high efficacy of Cizolirtine in a model for the central neuropathic pain, the ligature of the infraorbital nerve.
Rats operated on lnfraorbital nerve
Rats were operated placing a ligature around the infraorbital nerve on one side. Following this operation the response threshold in (g) is reduced considerably if comparing the ipsilateral and contralateral side to the response pre ligature (Fig. 2) measured as aversive reactions. […] Saline produced no modification of the nociceptive threshold.

On to `CN(C)CCOC(c1ccccc1)c1ccnn1C` (racemic) [Cizolirtine, (±)-5-{α-[2-(dimethylamino)ethoxy]benzyl}-1-methyl-1H-pirazole], for which the “nociceptive threshold (%)” value (i.p., 80 mg/kg, ipsilateral side, rats with ligature around the infraorbital nerve, Fig. 1) is “strong inducement of the nociceptive threshold”. In addition, the “efficacy in a model for the central neuropathic pain, the ligature of the infraorbital nerve” value (legend of Figures 1 and 2, referring to example 7) is recorded as “high efficacy”.
